Measurements: patent US10793509B2, “Compounds useful in the treatment of neoplastic diseases” (UNIVERSITÄT ZU KÖLN, priority 2013, dated 2020)

Test system: melanoma cell line MelJuso
Test: Annexin V/PI assay, MelJuso
Format: cell-based
Details: Homo sapiens, MEL-JUSO, 24 h

## O=C(Oc1ccc(CO[N+](=O)[O-])cc1)c1ccccc1 [B9, 4-((nitrooxy)methyl)phenyl benzoate]
  EC50: 8.76 µM
